Reference: ChEMBL document CHEMBL3727355, “Chemokine receptor activity regulator” (2014)

These molecules were tested against T1, C-C chemokine receptor type 10 (Homo sapiens) (UniProt P46092) (assay: Antagonist activity against human CCR10 expressed in human KJMGER8 cells assessed as inhibition of human recombinant CTACK-induced increase in intracellular calcium level at 100 nmol/L pre-incubated for 30 mins before human recombinant CTACK stimulation for 5 mins by FLIPR assay).
T1 sequence (whole entry): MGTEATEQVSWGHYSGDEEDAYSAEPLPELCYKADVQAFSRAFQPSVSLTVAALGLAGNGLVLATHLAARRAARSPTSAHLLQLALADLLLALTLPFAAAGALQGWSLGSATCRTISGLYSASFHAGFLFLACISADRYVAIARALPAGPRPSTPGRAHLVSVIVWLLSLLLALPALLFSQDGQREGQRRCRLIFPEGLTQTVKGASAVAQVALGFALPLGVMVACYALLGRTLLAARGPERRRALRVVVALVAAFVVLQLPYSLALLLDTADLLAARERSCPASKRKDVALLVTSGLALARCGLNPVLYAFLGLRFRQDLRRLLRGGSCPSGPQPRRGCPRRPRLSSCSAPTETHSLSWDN
Assay type: functional, cell-based

SMILES | inhibition
CCC(=O)NS(=O)(=O)c1cnn2c(Nc3ccc(C)cc3Cl)c(C(=O)N3CCC(c4ccc(F)cc4)CC3)cnc12 | 98.3%
COCC(=O)NS(=O)(=O)c1cnn2c(Nc3ccc(F)cc3C)c(C(=O)N3CCC(c4ccccc4)CC3)cnc12 | 94.2%
CCNC(=O)NS(=O)(=O)c1cnn2c(Nc3ccc(Cl)cc3Cl)c(C(=O)N3CCC(c4ccc(F)cc4)CC3)cnc12 | 90.7%
Cc1cc(Cl)ccc1Nc1c(C(=O)N2CCC3(CC2)OCc2ccccc23)cnc2c(S(=O)(=O)NC(=O)C3CC3)cnn12 | > 100%
COC(=O)NS(=O)(=O)c1cnn2c(Nc3cc(C)ccc3C)c(C(=O)N3CCC(c4ccccc4)CC3)cnc12 | > 100%
CCNS(=O)(=O)c1cnn2c(Nc3ccc(F)cc3C)c(C(=O)N3CCC(c4ccccc4)CC3)cnc12 | > 100%
O=C(NS(=O)(=O)c1cnn2c(Nc3ccccc3Cl)c(C(=O)N3CCC(c4ccc(F)cc4)CC3)cnc12)C1CC1 | 80.6%
Cc1cc(F)ccc1Nc1c(C(=O)N2CCC(c3ccc(F)cc3)CC2)cnc2c(S(=O)(=O)NCC(F)(F)F)cnn12 | > 100%
CCNC(=O)NS(=O)(=O)c1cnn2c(Nc3ccc(Cl)c(Cl)c3)c(C(=O)N3CCC(c4ccc(F)cc4)CC3)cnc12 | > 100%
CCNC(=O)NS(=O)(=O)c1cnn2c(Nc3cc(Cl)ccc3F)c(C(=O)N3CCC(c4ccc(F)cc4)CC3)cnc12 | > 100%
CCNS(=O)(=O)c1cnn2c(Nc3cc(C)ccc3Cl)c(C(=O)N3CCC4(CC3)OCc3ccccc34)cnc12 | 80.3%
Cc1ccc(F)c(Nc2c(C(=O)N3CCC4(CC3)OCc3ccccc34)cnc3c(S(=O)(=O)NC(=O)C4CC4)cnn23)c1 | > 100%
CCC(=O)NS(=O)(=O)c1cnn2c(Nc3ccc(Cl)cc3Cl)c(C(=O)N3CCC(c4ccc(F)cc4)CC3)cnc12 | 97%
Cc1ccc(Cl)c(Nc2c(C(=O)N3CCC(c4ccc(F)cc4)CC3)cnc3c(S(=O)(=O)NC(=O)NC4CC4(F)F)cnn23)c1 (configuration not stated) | > 100%
CCNC(=O)NS(=O)(=O)c1cnn2c(Nc3cc(F)ccc3Cl)c(C(=O)N3CCC(c4ccc(F)cc4)CC3)cnc12 | > 100%
CCN(CC)S(=O)(=O)c1cnn2c(Nc3ccc(F)cc3C)c(C(=O)N3CCC(c4ccccc4)CC3)cnc12 | > 100%
CCNC(=O)NS(=O)(=O)c1cnn2c(Nc3cc(C)ccc3Cl)c(C(=O)N3CCC4(CC3)OCc3ccccc34)cnc12 | 95.2%
Cc1ccc(Cl)c(Nc2c(C(=O)N3CCC4(CC3)OCc3ccccc34)cnc3c(S(=O)(=O)NC(=O)NC4CCOCC4)cnn23)c1 | 62.3%
CCC(=O)NS(=O)(=O)c1cnn2c(Nc3cc(Cl)ccc3Cl)c(C(=O)N3CCC(c4ccc(F)cc4)CC3)cnc12 | > 100%
CCNS(=O)(=O)c1cnn2c(Nc3ccc(Cl)cc3C)c(C(=O)N3CCC(c4ccc(F)cc4)CC3)cnc12 | > 100%
Cc1cc(F)ccc1Nc1c(C(=O)N2CCC(c3ccccc3)CC2)cnc2c(S(=O)(=O)NC(=O)CO)cnn12 | > 100%
CCC(=O)NS(=O)(=O)c1cnn2c(Nc3cc(C(F)(F)F)ccc3Cl)c(C(=O)N3CCC(c4ccc(F)cc4)CC3)cnc12 | > 100%
CCC(=O)NS(=O)(=O)c1cnn2c(Nc3cc(Cl)ccc3Cl)c(C(=O)N3CCC4(CC3)OCc3ccccc34)cnc12 | > 100%
CCNC(=O)NS(=O)(=O)c1cnn2c(Nc3cc(C)c(F)cc3Cl)c(C(=O)N3CCC(c4ccc(F)cc4)CC3)cnc12 | > 100%
O=C(NS(=O)(=O)c1cnn2c(Nc3ccccc3Cl)c(C(=O)N3CCC(c4ccccc4)CC3)cnc12)C1CC1 | 98.9%
CCNC(=O)NS(=O)(=O)c1cnn2c(Nc3ccc(F)cc3C)c(C(=O)N3CCC4(CC3)OCc3ccccc34)cnc12 | 92%
CCC(=O)NS(=O)(=O)c1cnn2c(Nc3cc(C)ccc3Cl)c(C(=O)N3CCC4(CC3)OCc3ccccc34)cnc12 | > 100%
